According to ChEMBL document CHEMBL1909046, “DrugMatrix in vitro pharmacology data”:

Legend:
[1] = molecular target: T1, Cholecystokinin receptor type A (Homo sapiens, UniProt P32238); assay type: cell membranes, Membrane; settings: 1321-n1; also: in other assays of this panel Not Active means under 50% inhibition at 10 µM
T1 sequence (P32238 whole entry): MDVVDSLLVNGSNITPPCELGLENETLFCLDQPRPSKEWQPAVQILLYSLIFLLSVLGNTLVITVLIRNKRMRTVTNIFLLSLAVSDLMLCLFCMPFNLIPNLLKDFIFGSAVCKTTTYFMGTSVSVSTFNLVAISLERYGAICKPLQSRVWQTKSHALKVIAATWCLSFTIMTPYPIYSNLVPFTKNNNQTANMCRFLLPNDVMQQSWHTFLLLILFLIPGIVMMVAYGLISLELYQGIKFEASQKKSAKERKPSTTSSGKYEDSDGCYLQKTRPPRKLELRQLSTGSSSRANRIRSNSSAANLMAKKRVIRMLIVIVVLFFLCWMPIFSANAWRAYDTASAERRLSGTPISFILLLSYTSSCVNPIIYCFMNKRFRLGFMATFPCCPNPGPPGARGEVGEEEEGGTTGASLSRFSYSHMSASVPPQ

[2] = molecular target: Protein kinase C alpha type (Homo sapiens, UniProt P17252); assay type: cell-based; settings: sf9;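 also: inhibition of PKCalpha kinase activity measured in an enzyme assay with histone as the phosphorylation substrate; in other assays of this panel Not Active means under 50% inhibition at 10 µM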
D(1A) dopamine receptor = D(1A) dopamine receptor (Homo sapiens, UniProt P21728); test: DRUGMATRIX: Dopamine D1 radioligand binding (ligand: [3H] SCH-23390); assay type: cell membranes, Membrane; settings: cho; Not Active = under 50% inhibition at 10 µM
Neutrophil elastase = molecular target: T2, Neutrophil elastase (Homo sapiens, UniProt P08246); assay type: tissue-based;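 also: inhibition of neutrophil elastase enzyme activity, measured with a p-nitroanilide-linked peptide substrate; in other assays of this panel Not Active means under 50% inhibition at 10 µM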
T2 sequence (P08246 whole entry): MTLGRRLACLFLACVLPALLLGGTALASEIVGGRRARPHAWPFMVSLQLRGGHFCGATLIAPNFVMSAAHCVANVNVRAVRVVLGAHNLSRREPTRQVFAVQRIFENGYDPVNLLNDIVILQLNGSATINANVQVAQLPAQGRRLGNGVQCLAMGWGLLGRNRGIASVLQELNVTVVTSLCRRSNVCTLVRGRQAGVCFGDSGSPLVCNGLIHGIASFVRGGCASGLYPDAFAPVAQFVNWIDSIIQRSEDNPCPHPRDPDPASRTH

[3] = molecular target: Receptor tyrosine-protein kinase erbB-2 (Homo sapiens, UniProt P04626); test: biochemical; assay type: cell-based, Insect cells; settings: insect cells;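 also: inhibition of HER2 kinase enzyme activity, measured with Poly(Glu:Tyr) as the phosphorylation substrate; in other assays of this panel Not Active means under 50% inhibition at 10 µM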
[4] = molecular target: T3, C-X-C chemokine receptor type 2 (Homo sapiens, UniProt P25025); assay type: cell membranes, Membrane; settings: cho-k1; also: in other assays of this panel Not Active means under 50% inhibition at 10 µM
T3 sequence (P25025 whole entry): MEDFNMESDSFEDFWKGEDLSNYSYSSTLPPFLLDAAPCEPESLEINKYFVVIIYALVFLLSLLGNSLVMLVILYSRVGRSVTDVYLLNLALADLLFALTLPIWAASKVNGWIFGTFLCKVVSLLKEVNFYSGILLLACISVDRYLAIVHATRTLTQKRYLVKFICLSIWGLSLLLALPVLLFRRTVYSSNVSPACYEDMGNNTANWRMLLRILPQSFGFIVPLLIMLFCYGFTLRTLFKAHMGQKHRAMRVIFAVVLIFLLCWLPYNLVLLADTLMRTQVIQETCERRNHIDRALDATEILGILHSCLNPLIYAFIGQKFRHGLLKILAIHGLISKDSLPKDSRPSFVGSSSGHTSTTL

Melanocortin receptor 4 = Melanocortin receptor 4 (Homo sapiens, UniProt P32245); assay type: cell membranes, Membrane; settings: hek293; also: in other assays of this panel Not Active means under 50% inhibition at 10 µM
Glucocorticoid receptor = molecular target: T4, Glucocorticoid receptor (Homo sapiens, UniProt P04150); settings: hela s3; also: in other assays of this panel Not Active means under 50% inhibition at 10 µM
T4 sequence (P04150 whole entry): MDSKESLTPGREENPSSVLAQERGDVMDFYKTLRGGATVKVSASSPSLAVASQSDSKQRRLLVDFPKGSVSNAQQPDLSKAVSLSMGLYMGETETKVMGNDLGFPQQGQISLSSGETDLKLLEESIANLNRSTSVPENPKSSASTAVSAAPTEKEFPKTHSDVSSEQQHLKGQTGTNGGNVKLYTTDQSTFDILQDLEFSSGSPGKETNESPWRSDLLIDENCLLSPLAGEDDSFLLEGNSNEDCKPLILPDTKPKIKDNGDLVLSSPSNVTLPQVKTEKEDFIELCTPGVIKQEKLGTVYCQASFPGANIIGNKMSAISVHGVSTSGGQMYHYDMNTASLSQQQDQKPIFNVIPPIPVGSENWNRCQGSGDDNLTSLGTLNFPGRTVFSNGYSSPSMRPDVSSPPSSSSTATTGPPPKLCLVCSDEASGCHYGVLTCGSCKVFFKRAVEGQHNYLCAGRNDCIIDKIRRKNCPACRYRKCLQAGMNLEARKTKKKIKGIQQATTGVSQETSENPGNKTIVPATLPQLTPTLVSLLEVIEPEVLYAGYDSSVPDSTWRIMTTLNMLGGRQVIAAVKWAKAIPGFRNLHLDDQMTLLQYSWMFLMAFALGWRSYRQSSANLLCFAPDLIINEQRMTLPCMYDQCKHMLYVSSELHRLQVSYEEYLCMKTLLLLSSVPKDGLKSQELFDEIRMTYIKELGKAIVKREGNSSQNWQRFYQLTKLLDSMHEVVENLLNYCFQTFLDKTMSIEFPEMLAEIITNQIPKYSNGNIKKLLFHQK

D(3) dopamine receptor = D(3) dopamine receptor (Homo sapiens, UniProt P35462); test: DRUGMATRIX: Dopamine D3 radioligand binding (ligand: [3H] Spiperone); assay type: cell membranes, CHO, Membrane
Histamine H2 receptor = Histamine H2 receptor (Homo sapiens, UniProt P25021); assay type: cell membranes, CHO-K1, Membrane; also: in other assays of this panel Not Active means under 50% inhibition at 10 µM
[5] = DRUGMATRIX: Purinergic P2X radioligand binding (ligand: [3H] alpha, beta-Methylene-ATP); assay type: cell membranes, Oryctolagus cuniculus, New Zealand albino, Urinary bladder, Membrane; settings: Not Active = under 50% inhibition at 10 µM
[6] = molecular target: Sodium-dependent dopamine transporter (Homo sapiens, UniProt Q01959); test: DRUGMATRIX: Dopamine Transporter radioligand binding (ligand: [125I] RTI-55); assay type: cell membranes, CHO-K1, Membrane; settings: Not Active = under 50% inhibition at 10 µM; for Ki: read-out: Ki
Glycine receptor = Glycine receptor (Rattus norvegicus, UniProt P22771+P24524+P07727+P20781); assay type: cell membranes, Wistar, Spinal cord, Membrane; also: in other assays of this panel Not Active means under 50% inhibition at 10 µM

Chain of Sodium-dependent dopamine transporter (Q01959 whole entry): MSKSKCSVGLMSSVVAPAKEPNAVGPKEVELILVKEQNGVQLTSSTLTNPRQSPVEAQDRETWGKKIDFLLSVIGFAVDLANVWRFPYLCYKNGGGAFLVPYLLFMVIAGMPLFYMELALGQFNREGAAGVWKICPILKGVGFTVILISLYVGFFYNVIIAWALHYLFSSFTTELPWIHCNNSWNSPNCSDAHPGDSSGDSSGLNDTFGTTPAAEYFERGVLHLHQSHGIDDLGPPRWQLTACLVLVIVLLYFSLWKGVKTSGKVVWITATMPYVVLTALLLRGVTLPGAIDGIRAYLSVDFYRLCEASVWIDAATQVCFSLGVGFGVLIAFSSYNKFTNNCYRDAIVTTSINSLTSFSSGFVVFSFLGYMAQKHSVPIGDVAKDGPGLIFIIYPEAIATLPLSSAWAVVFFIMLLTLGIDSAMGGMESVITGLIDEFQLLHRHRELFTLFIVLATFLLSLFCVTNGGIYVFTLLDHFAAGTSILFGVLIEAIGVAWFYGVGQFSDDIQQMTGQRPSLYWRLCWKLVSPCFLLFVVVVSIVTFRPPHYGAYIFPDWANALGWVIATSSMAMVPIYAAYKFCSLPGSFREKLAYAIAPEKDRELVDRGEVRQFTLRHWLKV
Chain of Melanocortin receptor 4 (P32245 whole entry): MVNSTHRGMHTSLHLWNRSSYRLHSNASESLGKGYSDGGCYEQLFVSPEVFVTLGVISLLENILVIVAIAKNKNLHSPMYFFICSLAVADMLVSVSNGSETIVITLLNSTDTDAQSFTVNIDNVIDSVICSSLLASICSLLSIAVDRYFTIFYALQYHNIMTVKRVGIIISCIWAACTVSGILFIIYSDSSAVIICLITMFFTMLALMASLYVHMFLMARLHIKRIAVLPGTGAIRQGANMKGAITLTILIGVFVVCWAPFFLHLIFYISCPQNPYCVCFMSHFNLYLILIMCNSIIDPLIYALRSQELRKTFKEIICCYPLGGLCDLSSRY
Chain of Receptor tyrosine-protein kinase erbB-2 (P04626 whole entry): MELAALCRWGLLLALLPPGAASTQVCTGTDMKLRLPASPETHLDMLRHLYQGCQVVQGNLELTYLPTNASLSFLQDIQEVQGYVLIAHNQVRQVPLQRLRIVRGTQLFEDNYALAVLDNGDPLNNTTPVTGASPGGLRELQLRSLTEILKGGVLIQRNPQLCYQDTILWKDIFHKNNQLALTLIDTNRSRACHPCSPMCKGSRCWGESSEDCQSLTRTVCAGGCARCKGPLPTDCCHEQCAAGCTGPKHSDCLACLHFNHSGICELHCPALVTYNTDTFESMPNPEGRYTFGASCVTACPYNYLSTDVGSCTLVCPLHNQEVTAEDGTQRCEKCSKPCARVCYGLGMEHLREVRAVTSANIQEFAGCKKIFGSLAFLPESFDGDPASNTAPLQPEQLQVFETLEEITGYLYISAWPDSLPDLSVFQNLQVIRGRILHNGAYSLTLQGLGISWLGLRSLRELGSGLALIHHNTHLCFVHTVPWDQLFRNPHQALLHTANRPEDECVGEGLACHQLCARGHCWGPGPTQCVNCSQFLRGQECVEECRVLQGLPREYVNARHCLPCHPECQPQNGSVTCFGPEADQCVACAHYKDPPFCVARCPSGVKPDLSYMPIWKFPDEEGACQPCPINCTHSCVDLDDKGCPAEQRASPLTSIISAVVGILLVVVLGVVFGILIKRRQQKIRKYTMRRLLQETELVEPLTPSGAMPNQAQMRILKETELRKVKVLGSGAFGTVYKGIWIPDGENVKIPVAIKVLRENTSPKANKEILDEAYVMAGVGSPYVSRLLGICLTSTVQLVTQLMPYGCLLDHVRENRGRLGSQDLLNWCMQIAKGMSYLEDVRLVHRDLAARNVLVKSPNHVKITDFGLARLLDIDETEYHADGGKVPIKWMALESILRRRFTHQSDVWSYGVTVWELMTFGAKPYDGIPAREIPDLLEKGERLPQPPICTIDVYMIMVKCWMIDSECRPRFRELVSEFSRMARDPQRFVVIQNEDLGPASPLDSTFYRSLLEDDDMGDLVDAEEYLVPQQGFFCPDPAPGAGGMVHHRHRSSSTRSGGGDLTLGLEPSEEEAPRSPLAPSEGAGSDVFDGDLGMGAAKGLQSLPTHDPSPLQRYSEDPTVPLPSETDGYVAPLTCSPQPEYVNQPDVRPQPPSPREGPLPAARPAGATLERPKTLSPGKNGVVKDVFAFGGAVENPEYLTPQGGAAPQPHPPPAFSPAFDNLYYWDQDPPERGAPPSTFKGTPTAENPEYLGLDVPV
Chain of D(1A) dopamine receptor (P21728 whole entry): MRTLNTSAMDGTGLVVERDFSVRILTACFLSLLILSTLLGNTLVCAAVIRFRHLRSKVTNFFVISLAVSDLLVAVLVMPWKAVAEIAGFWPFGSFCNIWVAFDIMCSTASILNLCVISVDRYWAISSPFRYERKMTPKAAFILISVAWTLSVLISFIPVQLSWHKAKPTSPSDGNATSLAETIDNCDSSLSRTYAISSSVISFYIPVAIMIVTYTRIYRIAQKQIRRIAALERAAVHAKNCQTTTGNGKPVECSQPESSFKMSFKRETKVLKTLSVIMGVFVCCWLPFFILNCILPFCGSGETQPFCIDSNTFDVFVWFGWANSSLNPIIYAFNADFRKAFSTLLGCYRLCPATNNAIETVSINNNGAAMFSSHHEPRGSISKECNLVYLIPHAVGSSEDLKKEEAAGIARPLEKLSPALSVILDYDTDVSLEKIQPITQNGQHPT
Chain of Histamine H2 receptor (P25021 whole entry): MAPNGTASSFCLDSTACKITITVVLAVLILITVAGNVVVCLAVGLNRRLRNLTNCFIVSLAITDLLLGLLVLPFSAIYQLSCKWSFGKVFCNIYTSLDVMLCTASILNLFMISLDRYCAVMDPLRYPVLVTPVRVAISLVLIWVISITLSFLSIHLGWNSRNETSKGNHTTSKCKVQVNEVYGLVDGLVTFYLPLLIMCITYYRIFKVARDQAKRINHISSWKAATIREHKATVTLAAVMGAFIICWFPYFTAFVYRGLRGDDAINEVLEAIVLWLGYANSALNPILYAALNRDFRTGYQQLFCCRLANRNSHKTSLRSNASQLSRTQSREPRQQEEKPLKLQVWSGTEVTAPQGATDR
Chain of D(3) dopamine receptor (P35462 whole entry): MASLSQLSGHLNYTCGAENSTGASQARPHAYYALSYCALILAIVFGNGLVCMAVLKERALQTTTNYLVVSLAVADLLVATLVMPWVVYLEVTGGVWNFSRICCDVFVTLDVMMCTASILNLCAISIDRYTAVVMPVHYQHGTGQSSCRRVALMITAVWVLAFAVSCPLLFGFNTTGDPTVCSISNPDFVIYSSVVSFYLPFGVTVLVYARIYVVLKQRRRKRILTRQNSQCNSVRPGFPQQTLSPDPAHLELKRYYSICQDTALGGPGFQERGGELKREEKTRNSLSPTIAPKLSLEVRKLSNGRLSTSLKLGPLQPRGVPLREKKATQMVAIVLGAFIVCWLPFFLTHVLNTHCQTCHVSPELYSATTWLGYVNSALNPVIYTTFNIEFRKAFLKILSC

SMILES | IC50 [1] | IC50 [2] | IC50 (D(1A) dopamine receptor) | IC50 (Neutrophil elastase) | IC50 [3] | IC50 [4] | IC50 (Melanocortin receptor 4) | IC50 (Glucocorticoid receptor) | IC50 (D(3) dopamine receptor; cho) | IC50 (Histamine H2 receptor; cho-k1) | IC50 [5] | Ki [5] | IC50 ([6]; cho-k1) | IC50 (Glycine receptor) | IC50 (Histamine H2 receptor; read-out: IC50) [µM] | Ki (Histamine H2 receptor; read-out: Ki) [µM] | IC50 ([6]; read-out: IC50) [µM] | Ki [6] [µM] | IC50 (D(3) dopamine receptor; read-out: IC50) [µM] | Ki (D(3) dopamine receptor; read-out: Ki) [µM]
CC(=O)N[C@@H]1[C@H](Oc2c3cc4cc2Oc2ccc(cc2Cl)[C@@H](O[C@@H]2O[C@@H](CO)[C@@H](O)[C@H](O)[C@@H]2NC(C)=O)[C@@H]2NC(=O)[C@H](NC(=O)[C@@H]4NC(=O)[C@H]4NC(=O)[C@@H](Cc5ccc(c(Cl)c5)O3)NC(=O)[C@H](N)c3ccc(O)c(c3)Oc3cc(O)cc4c3)c3ccc(O)c(c3)-c3c(O[C@H]4O[C@H](CO)[C@@H](O)[C@@H](O)[C@@H]4O)cc(O)cc3[C@@H](C(=O)O)NC2=O)O[C@@H](CO)[C@@H](O)[C@@H]1O | Not Active | Not Active | Not Active | Not Active | Not Active | Not Active | Not Active | Not Active | Not Active | Not Active | Not Active | Not Active | Not Active | Not Active | – | – | – | – | – | –
CC(=O)N1CCN(c2ccc(OCC3COC(Cn4ccnc4)(c4ccc(Cl)cc4Cl)O3)cc2)CC1 (configuration not stated) [KETOCONAZOLE] | Not Active | Not Active | Not Active | Not Active | Not Active | Not Active | Not Active | Not Active | Not Active | – | Not Active | Not Active | – | Not Active | 21.9 | 21.5 | 23.5 | 18.7 | – | –
COCCOC(=O)C1=C(C)NC(C)=C(C(=O)OC(C)C)C1c1cccc([N+](=O)[O-])c1 (configuration not stated) [NIMODIPINE] | Not Active | Not Active | Not Active | Not Active | Not Active | Not Active | Not Active | Not Active | Not Active | Not Active | Not Active | Not Active | Not Active | Not Active | – | – | – | – | – | –
COCCCOc1ccnc(C[S+]([O-])c2nc3ccccc3[nH]2)c1C (configuration not stated) [RABEPRAZOLE] | Not Active | Not Active | Not Active | Not Active | Not Active | Not Active | Not Active | Not Active | – | Not Active | Not Active | Not Active | Not Active | Not Active | – | – | – | – | 2.33 | 0.79
CNC(=C[N+](=O)[O-])NCCSCc1ccc(CN(C)C)o1 [RANITIDINE] | Not Active | Not Active | Not Active | Not Active | Not Active | Not Active | Not Active | Not Active | Not Active | Not Active | Not Active | Not Active | Not Active | Not Active | – | – | – | – | – | –
CO[C@H]1/C=C/O[C@@]2(C)Oc3c(C)c(O)c4c(c3C2=O)C2=NC3(CCN(CC(C)C)CC3)NC2=C(NC(=O)/C(C)=C\C=C\[C@H](C)[C@H](O)[C@@H](C)[C@@H](O)[C@@H](C)[C@H](OC(C)=O)[C@@H]1C)C4=O [RIFABUTIN] | Not Active | Not Active | Not Active | Not Active | Not Active | Not Active | Not Active | Not Active | Not Active | Not Active | Not Active | Not Active | Not Active | Not Active | – | – | – | – | – | –
CC(C)c1nc(CN(C)C(=O)N[C@H](C(=O)N[C@@H](Cc2ccccc2)C[C@H](O)[C@H](Cc2ccccc2)NC(=O)OCc2cncs2)C(C)C)cs1 [RITONAVIR] | Not Active | Not Active | Not Active | Not Active | Not Active | Not Active | Not Active | Not Active | Not Active | Not Active | Not Active | Not Active | Not Active | Not Active | – | – | – | – | – | –
CC(C)CC(N(C)C)C1(c2ccc(Cl)cc2)CCC1 (configuration not stated) [SIBUTRAMINE] | Not Active | Not Active | Not Active | Not Active | Not Active | Not Active | Not Active | Not Active | Not Active | Not Active | Not Active | Not Active | – | Not Active | – | – | 0.632 | 0.502 | – | –
[H]/N=C(/N)N[C@H]1[C@H](O)[C@@H](O)[C@H](O[C@@H]2O[C@@H](C)[C@](O)(C=O)[C@H]2O[C@@H]2O[C@@H](CO)[C@H](O)[C@@H](O)[C@@H]2NC)[C@@H](N/C(N)=N\[H])[C@@H]1O [STREPTOMYCIN] | Not Active | Not Active | Not Active | Not Active | Not Active | Not Active | Not Active | Not Active | Not Active | Not Active | Not Active | Not Active | Not Active | Not Active | – | – | – | – | – | –
COc1cc(NS(=O)(=O)c2ccc(N)cc2)nc(OC)n1 [SULFADIMETHOXINE] | Not Active | Not Active | Not Active | Not Active | Not Active | Not Active | Not Active | Not Active | Not Active | Not Active | Not Active | Not Active | Not Active | Not Active | – | – | – | – | – | –
Cc1cc(C)nc(NS(=O)(=O)c2ccc(N)cc2)n1 [SULFAMETHAZINE] | Not Active | Not Active | Not Active | Not Active | Not Active | Not Active | Not Active | Not Active | Not Active | Not Active | Not Active | Not Active | Not Active | Not Active | – | – | – | – | – | –
C[C@]1(Cn2ccnn2)[C@H](C(=O)O)N2C(=O)C[C@H]2S1(=O)=O [TAZOBACTAM] | Not Active | Not Active | Not Active | Not Active | Not Active | Not Active | Not Active | Not Active | Not Active | Not Active | Not Active | Not Active | Not Active | Not Active | – | – | – | – | – | –
